Results on eleven compounds are retold here after PubChem BioAssay (NCI).

The structures appear in SMILES notation. Values joined by “and” are separate entries in the source; they are usually repeats but may differ in a detail not shown here. Identical values can stand only once.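 48-hour exposure; five concentrations; linearly interpolated endpoints. GI50 marks 50% less growth. TGI marks complete inhibition of growth.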

Some test systems named below: MCF7 breast; SK-OV-3 ovarian; T-47D breast; UO-31 renal; IGROV1 ovarian; NCI-H226 lung; SF-295 CNS; HS 578T breast; SNB-19 CNS; HOP-92 NSCLC.
Test in all cases: NCI tumour cell line growth inhibition, 48 h

`O=c1c2sccc2n(CC2COc3ccccc3O2)c(=O)n1O` (stereo unspecified): the GI50 in the test on MCF7 breast is 5.17 µM; in the test with SK-OV-3 ovarian, 32.8 µM; in the test with T-47D breast it was 16.8 µM; in the test with UO-31 renal, 16 µM; in the test on IGROV1 ovarian, 15.4 µM; with NCI-H226 lung, 24.6 µM. Further, the GI50 in the test on SF-295 CNS is 9.51 µM; with HS 578T breast it was 15.1 µM; in the test on SNB-19 CNS it was 12.8 µM. The TGI is > 100 µM in the test with MCF7 breast; > 100 µM in the test on SK-OV-3 ovarian; > 100 µM in the test with T-47D breast; 97.5 µM with UO-31 renal; > 100 µM with IGROV1 ovarian; 83.6 µM in the test with NCI-H226 lung. Further, the TGI with SF-295 CNS, in the test with HS 578T breast and with SNB-19 CNS was > 100 µM each time.

As for `CN(C)CCSC1=Nc2ccc(Cl)cc2C(c2ccccc2Cl)=NC1`, the GI50 in the test with MCF7 breast was 12 µM and 67.4 µM; in the test with SK-OV-3 ovarian, 16.9 µM and 63.1 µM; in the test on T-47D breast it was 19.2 µM and 78.3 µM; with UO-31 renal, 9.23 µM and 53.4 µM; in the test on SF-295 CNS it was 16 µM and 68.7 µM; in the test on HOP-92 NSCLC it was 12.3 µM and 72.3 µM. Further, the GI50 in the test with SNB-19 CNS was 17.1 µM and > 100 µM. In addition, the TGI in the test on MCF7 breast is 25.5 µM and > 100 µM; in the test with SK-OV-3 ovarian, 33.6 µM and > 100 µM; in the test on T-47D breast, 47.3 µM and > 100 µM; with UO-31 renal it was 21.8 µM and > 100 µM; in the test on IGROV1 ovarian it was > 100 µM; with SF-295 CNS, 31.5 µM and > 100 µM. Moreover, the TGI with HOP-92 NSCLC was 31.7 µM and > 100 µM; in the test with HS 578T breast, 35.7 µM and > 100 µM; with SNB-19 CNS it was 31.1 µM and > 100 µM.

For `COc1cc2c(c(OC)c1OC)-c1ccc(OC)c(=O)cc1C(NC(=O)c1ccc(N=[N+]=[N-])cc1)CC2` (stereo unspecified), the TGI is > 100 µM with MCF7 breast; > 100 µM with T-47D breast; > 95.7 µM in the test on UO-31 renal; > 100 µM in the test on IGROV1 ovarian; 3.78 µM in the test on NCI-H226 lung; 0.0582 µM in the test on SF-295 CNS. The values for the TGI in the test with HOP-92 NSCLC, in the test on HS 578T breast and in the test on SNB-19 CNS were 18.9 µM, > 100 µM and > 100 µM, respectively.

In the case of `COc1ccc(/C=C(/C#N)n2nnc3cccc(F)c32)cc1`, the GI50 is 0.524 µM with MCF7 breast; 0.503 µM in the test on T-47D breast; 1.8 µM in the test with UO-31 renal; 0.759 µM with IGROV1 ovarian; 2.87 µM in the test with NCI-H226 lung; 2.35 µM in the test with SF-295 CNS. Moreover, the GI50 in the test with HOP-92 NSCLC is 0.546 µM; in the test with HS 578T breast it was 1.66 µM; in the test with SNB-19 CNS it was 2.38 µM. The TGI was > 100 µM in the test with MCF7 breast; > 100 µM in the test on T-47D breast; 6.87 µM in the test with UO-31 renal; 16.3 µM in the test with IGROV1 ovarian; 53.8 µM with NCI-H226 lung; 17.8 µM in the test with SF-295 CNS. Besides, the TGI in the test with HOP-92 NSCLC came out at 3.23 µM; in the test on HS 578T breast, 6.41 µM; in the test with SNB-19 CNS, 82.1 µM.

In the case of `O=S(=O)(CCn1c(Sc2ccccc2)c(Sc2ccccc2)c2ccccc21)c1ccccc1`, the TGI in the test with MCF7 breast, in the test on SK-OV-3 ovarian, in the test on T-47D breast, in the test on UO-31 renal, in the test with IGROV1 ovarian and with NCI-H226 lung was > 100 µM throughout. Also, the TGI with SF-295 CNS, in the test on HS 578T breast and with SNB-19 CNS was > 100 µM in each case.

Turning to `OCC#Cc1ccccc1C#Cc1ccccc1`, the GI50 was 19.5 µM in the test on MCF7 breast; 16.6 µM in the test with SK-OV-3 ovarian; 18.1 µM with T-47D breast; 35.2 µM in the test on UO-31 renal; 30.3 µM in the test with IGROV1 ovarian; 15 µM in the test with NCI-H226 lung. Besides, the GI50 was 15.5 µM with SF-295 CNS, 18.3 µM with HS 578T breast and 20.6 µM in the test on SNB-19 CNS. Also, the TGI in the test with MCF7 breast was 44.4 µM; in the test on SK-OV-3 ovarian, 33.9 µM; in the test with T-47D breast, 37.6 µM; in the test on UO-31 renal it was > 100 µM; with IGROV1 ovarian, > 100 µM; in the test on NCI-H226 lung, 29.4 µM. In addition, the TGI in the test with SF-295 CNS was determined as 32.8 µM; in the test on HS 578T breast, 43.7 µM; in the test with SNB-19 CNS, 38.7 µM.

Consider `Cc1ccccc1S(=O)(=O)OC1NS(=O)(=O)c2ccccc21` (stereo unspecified), for which the TGI in the test on MCF7 breast, in the test on SK-OV-3 ovarian, in the test on T-47D breast, with UO-31 renal, with IGROV1 ovarian and in the test on SF-295 CNS was > 100 µM throughout. In addition, the TGI with HOP-92 NSCLC, in the test on HS 578T breast and with SNB-19 CNS was > 100 µM throughout.

As for `CCN1CCN(c2nc(C)cc(N(CCNc3ccnc4cc(Cl)ccc34)Cc3ccc4c(c3)OCO4)n2)CC1`, the GI50 in the test on MCF7 breast is 1.98 µM; in the test on SK-OV-3 ovarian it was 2.99 µM; with T-47D breast, 1.73 µM; with UO-31 renal, 1.36 µM; in the test with IGROV1 ovarian, 2.36 µM; in the test with NCI-H226 lung it was 15 µM. The GI50 in the test with SF-295 CNS is 1.76 µM; in the test with HOP-92 NSCLC it was 1.17 µM; in the test on SNB-19 CNS, 3 µM. In addition, the TGI in the test on MCF7 breast was 5.89 µM; with SK-OV-3 ovarian, 8.73 µM; with T-47D breast it was 3.87 µM; with UO-31 renal it was 2.72 µM; in the test with IGROV1 ovarian, 7.78 µM; in the test with NCI-H226 lung, 33.6 µM. Also, the TGI in the test with SF-295 CNS is 3.38 µM; in the test with HOP-92 NSCLC it was 2.67 µM; in the test with SNB-19 CNS, 10.2 µM.

On to `CCN(CC)/C(SCc1ccccc1)=C(\C(Cl)=C(Cl)Cl)[N+](=O)[O-]`, for which the TGI with MCF7 breast was 32.1 µM; in the test with SK-OV-3 ovarian, > 100 µM; in the test on T-47D breast, 86.7 µM; in the test with UO-31 renal, 38.9 µM; with IGROV1 ovarian, 33.8 µM; with NCI-H226 lung it was 39.1 µM. Further, the TGI is > 100 µM in the test on SF-295 CNS and 97.5 µM in the test on SNB-19 CNS.

Consider `N#CC(C#N)=CNC(N)=S`, for which the TGI with MCF7 breast, in the test on SK-OV-3 ovarian, in the test with T-47D breast, in the test on IGROV1 ovarian, in the test on NCI-H226 lung and with SF-295 CNS was > 100 µM in each case. The TGI with HOP-92 NSCLC, in the test with HS 578T breast and in the test with SNB-19 CNS was > 100 µM in each case.

Turning to `CC1(C)C2CCC(=O)C1CC2` (stereo unspecified), the TGI in the test with MCF7 breast, in the test with SK-OV-3 ovarian, in the test on T-47D breast, with UO-31 renal, in the test with IGROV1 ovarian and with NCI-H226 lung was > 100 µM in each case. Further, the TGI with SF-295 CNS, in the test with HS 578T breast and in the test on SNB-19 CNS was > 100 µM in each case.
